Like-named read-outs stand apart in the source and are kept apart here.
What was measured:
apomorphine stereotypy = conditions: M ± m
Corazol twitch paroxysm = conditions: for Threshold doses Corazol 1% solution, death of animal / Threshold doses Corazol 1% solution, start of twitch: M ± m
EEG = conditions: M
[1] = test system: chronic electric painful influence; conditions: for daily 15% ethanol consumption: M ± m
Description: In the test and control groups of animals, a determination was given during 7 days to an individual daily consumption of 15% ethanol in the conditions of free choice between said 15% ethanol and water. Thereafter the young rats were subjected to quintuple electric painful influence, daily for 2 weeks, on the paws for 5 minutes, duration 1 sec.; the grown-up animals--tenfold influence for 10 minutes, duration 1 sec. […] The control group received a corresponding volume of water.

[2] = orientation motive activity of mice, automated registration of movements; assay type: in vivo, mice (male); conditions: M ± m
Description: Experiments were conducted in vivo on male mice weighing 18-22 g and male rats weighing 200-250 g, as well as in vitro on the isolated organs: a guinea pig's ileum and a rat's seminal effervesces.

[3] = 40 mg/kg week-long introduction
[4] = 200 mg/kg single administration

aminoacetic acid [claimed preparation]
apomorphine duration of stereotypy (apomorphine stereotypy; 2 mg/kg): 20.0 ± 0.9 min | apomorphine latent period (apomorphine stereotypy; 2 mg/kg): 98.0 ± 1.5 s | apomorphine duration of stereotypy (apomorphine stereotypy; 40 mg/kg): 22.0 ± 0.6 min | apomorphine latent period (apomorphine stereotypy; 40 mg/kg): 104.0 ± 0.9 s | apomorphine duration of stereotypy (apomorphine stereotypy; 200 mg/kg): 20.0 ± 0.5 min | apomorphine latent period (apomorphine stereotypy; 200 mg/kg): 95.5 ± 0.8 s | Threshold doses Corazol 1% solution, death of animal (Corazol twitch paroxysm; 2 mg/kg single administration): 0.119 ± 0.006 mL | Threshold doses Corazol 1% solution, start of twitch (Corazol twitch paroxysm; 2 mg/kg single administration): 0.095 ± 0.004 mL | Threshold doses Corazol 1% solution, death of animal (Corazol twitch paroxysm; 2 mg/kg week-long introduction): 0.119 ± 0.004 mL | Threshold doses Corazol 1% solution, start of twitch (Corazol twitch paroxysm; 2 mg/kg week-long introduction): 0.090 ± 0.007 mL | Threshold doses Corazol 1% solution, death of animal (Corazol twitch paroxysm; 40 mg/kg single administration): 0.130 ± 0.006 mL | Threshold doses Corazol 1% solution, start of twitch (Corazol twitch paroxysm; 40 mg/kg single administration): 0.091 ± 0.005 mL | Threshold doses Corazol 1% solution, death of animal (Corazol twitch paroxysm; [3]): 0.163 ± 0.005 mL | Threshold doses Corazol 1% solution, start of twitch (Corazol twitch paroxysm; [3]): 0.095 ± 0.005 mL | Threshold doses Corazol 1% solution, death of animal (Corazol twitch paroxysm; 80 mg/kg single administration): 0.135 ± 0.007 mL | Threshold doses Corazol 1% solution, start of twitch (Corazol twitch paroxysm; 80 mg/kg single administration): 0.095 ± 0.004 mL | Threshold doses Corazol 1% solution, death of animal (Corazol twitch paroxysm; [4]): 0.130 ± 0.08 mL | Threshold doses Corazol 1% solution, start of twitch (Corazol twitch paroxysm; [4]): 0.096 ± 0.007 mL | Corazol threshold dosage (Corazol twitch paroxysm; in words): somewhat increasing a Corazol threshold dosage | Attention mobilization: reaction expression (EEG; 1,5 hrs after a dose): 2.82 arbitrary units | Eye opening-closing reaction: biopotential amplitude decline (EEG; 1,5 hrs after a dose): 25.40 mV | Eye opening-closing reaction: response (EEG; 1,5 hrs after a dose): 3.71 arbitrary units | HV-reaction (test with hyperventilation): reaction expression (EEG; 1,5 hrs after a dose): 2.07 arbitrary units | HV-reaction: after-effect (EEG; 1,5 hrs after a dose): 12.40 s | Presence of errors in count (EEG; 1,5 hrs after a dose): 28.60% | Repeated response to eye opening-closing: reaction expression (EEG; 1,5 hrs after a dose): 3.73 arbitrary units | Sonic signal count: reaction expression (EEG; 1,5 hrs after a dose): 3.64 arbitrary units | Sonic signal count: reaction suppression (EEG; 1,5 hrs after a dose): 5.79 sonic signals | Attention mobilization: reaction expression (EEG; after two-week course): 3.21 arbitrary units | Eye opening-closing reaction: biopotential amplitude decline (EEG; after two-week course): 23.60 mV | Eye opening-closing reaction: response (EEG; after two-week course): 3.07 arbitrary units | HV-reaction (test with hyperventilation): reaction expression (EEG; after two-week course): 2.64 arbitrary units | HV-reaction: after-effect (EEG; after two-week course): 20.70 s | Presence of errors in count (EEG; after two-week course): 33.00% | Repeated response to eye opening-closing: reaction expression (EEG; after two-week course): 3.00 arbitrary units | Sonic signal count: reaction expression (EEG; after two-week course): 3.79 arbitrary units | Sonic signal count: reaction suppression (EEG; after two-week course): 6.57 sonic signals | daily 15% ethanol consumption ([1]; adult animals, 2nd week, 1 to 2 mg/kg tongue root): 3.4 ± 0.13 mL | daily 15% ethanol consumption ([1]; adult animals, 4th week (after cancellation)): 2.3 ± 0.3 mL | daily 15% ethanol consumption ([1]; adult animals, 3d week, 1 to 2 mg/kg tongue root): 2.5 ± 0.15 mL | daily 15% ethanol consumption ([1]; adult animals, Test, 1st week (before stress and administration)): 1.8 ± 0.08 mL | aggressiveness and exciteability ([1]; during the entire experiment, vs control groups): considerable reduction of aggressiveness and exciteability | alcohol motivation ([1]; rat, in vivo): diminishes the alcohol motivation of the animals | daily 15% ethanol consumption ([1]; young rats, 2nd week, 1 to 2 mg/kg tongue root): 4.4 ± 0.3 mL | daily 15% ethanol consumption ([1]; young rats, 4th week (after cancellation)): 1.6 ± 0.18 mL | daily 15% ethanol consumption ([1]; young rats, 3d week, 1 to 2 mg/kg tongue root): 2.0 ± 0.2 mL | daily 15% ethanol consumption ([1]; young rats, Test, 1st week (before stress and administration)): 2.7 ± 0.2 mL | Number of movements in 10 min in register ([2]; 2 mg/kg intraperitoneally): 371 ± 56 | Number of movements in 10 min in register ([2]; 20 mg/kg intraperitoneally): 365 ± 79 | Number of movements in 10 min in register ([2]; 40 mg/kg into stomach): 439 ± 70

From patent publication US5643954A, “Method of preventing and alleviating stress in a healthy mammal in need thereof” (priority 1993, dated 1997)
